Measured values: patent publication US20080081827A1, “Use of a Pyrazole-Derived Compound that is an Antagonist for Cannabinoid CB1 Receptors, for Treating or Preventing Chronic Bronchitis or Chronic Obstructive Bronchopneumopathy” (SANOFI AVENTIS, priority 2004, published 2008)
Like-named read-outs stand apart in the source and are kept apart here.

Key:
[1] = tested on: LPS-induced migration of neutrophil and mononuclear cells in the bronchoalveolar space; experiment: Migration of cells in the bronchoalveolar space after activation with bacterial LPS; type: in vivo; conditions: mice, doses 0.3 to 30 mg/kg; for ED50: Mus musculus, i.p. 1 hour before 10 μG intratracheal LPS, bronchoalveolar lavage 24 hours after LPS
Description: Migration of cells in the bronchoalveolar space after activation with bacterial LPS (lipopolysaccharide).
Mice weighing 28 to 30 g are stimulated by means of an intratracheal exposure to 10 μG of LPS. 24 hours after the injection of LPS, the animals are anaesthetized with pentobarbital and a bronchoalveolar lavage is performed. The lavage fluids are recovered and are centrifuged, and the cells are then resuspended. The number of cells is counted, differentiating the eosinophil, neutrophil and mononuclear cells according to standard morphological criteria.
The intratracheal injection of LPS induces a considerable increase in the number of mononuclear cells and neutrophils in the bronchoalveolar space of the mice.

[2] = obese patients, clinical studies; cited from earlier work
[3] = STRATUS clinical study, nicotine addiction; cited from earlier work

In the case of Cc1c(C(=O)NN2CCCCC2)nn(-c2ccc(Cl)cc2Cl)c1-c1ccc(Cl)cc1 [rimonabant, N-piperidino-5-(4-chlorophenyl)-1-(2,4-dichlorophenyl)-4-methylpyrazole-3-carboxamide], the ED50 ([1]; Mononuclear cell, read-out: ED50, inhibition of migration of the mononuclear cells) is reported as 1.9 mg/kg, the ED50 ([1]; Neutrophil, read-out: effective dose 50 (ED50), inhibition of migration of the neutrophil cells) is reported as 2.3 mg/kg and the “inhibition of migration of the neutrophil cells” value ([1]; i.p. 1 hour before intratracheal LPS) is reported as “more than 80%”. The “effect on hunger, calorie intake and body weight” value [2] was “reduces hunger, calorie intake, and the body weight of obese patients” and the “effect on giving up smoking” value [3] was “facilitates giving up smoking”.
